In patent US11377429B2, “Benzothia(di)azepine compounds and their use as bile acid modulators” (Albireo AB, priority 2020, dated 2022):

How the values were obtained:
Human LBAT = biological target: T1, Human LBAT (Homo sapiens, UniProt Q14973); test: LBAT (h/m) assay, human LBAT-overexpressing cells, 3H-taurocholic acid uptake; format: cell-based; details: read-out: hLBAT IC50
T1 construct: expressed in transfected cells; cultured under Geneticin selection
T1 sequence (Q14973 1-349): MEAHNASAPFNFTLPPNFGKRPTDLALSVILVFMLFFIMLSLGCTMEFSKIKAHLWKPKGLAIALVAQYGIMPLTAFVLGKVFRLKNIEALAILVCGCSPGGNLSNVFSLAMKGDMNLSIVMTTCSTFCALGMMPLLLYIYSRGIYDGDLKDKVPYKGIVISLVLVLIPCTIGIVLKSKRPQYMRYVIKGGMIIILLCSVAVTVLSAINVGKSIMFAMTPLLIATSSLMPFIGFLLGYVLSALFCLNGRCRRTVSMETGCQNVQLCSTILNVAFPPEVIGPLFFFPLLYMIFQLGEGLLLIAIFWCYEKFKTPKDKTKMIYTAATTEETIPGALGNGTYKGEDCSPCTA
Description: LBAT (h/m) Assay Protocol
20,000 cells (Human or Mouse LBAT-overexpressing cells) were seeded in 96-wells plate (Corning CLS3809) in 100 μL MEM-alpha medium (Gibco 12571-063) supplemented with 10% FBS (Gibco 10438026) containing Geneticin (Gibco 10131-027) (1 mg/mL) and incubated at 37° C. in 5% CO2 for 24 hours. After incubation, media was decanted from the wells and cells were washed two times with 300 μL of basal MEM-alpha medium (FBS-free). After decanting basal MEM-alpha medium each time, plates were tapped against paper towel to ensure maximum removal of residual media. For human LBAT, incubation mix was prepared by adding test inhibitor dilutions (3-fold serial dilution in DMSO (Sigma D2650), 10 points) in MEM-alpha (without FBS) containing 0.3 μM 3H-taurocholic acid (ARC ART-1368) and 7.5 μM cold taurocholic acid (Sigma T4009) (maintaining 0.2% final DMSO concentration). For mouse LBAT, incubation mix was prepared by adding test inhibitor dilutions (3-fold serial dilution in DMSO, 10 points) in MEM-alpha (without FBS) containing 0.3 μM 3H-taurocholic acid and 25 μM cold taurocholic acid maintaining 0.2% final DMSO concentration). 50 μL of incubation mix containing test inhibitors was then added to the wells (in duplicate) and the plates were incubated for 20 minutes in a CO2 incubator at 37° C. After incubation, the reaction was stopped by keeping the plates on ice water mix for 2-3 minutes and then the incubation mix was aspirated completely from the wells. The wells were washed two times with 250 μL of chilled unlabeled 1 mM taurocholic acid dissolved in HEPES (Gibco 15630080)-buffered (10 mM) HBSS (Gibco 14175079) (pH 7.4). The plates were tapped against a paper towel after every wash to ensure maximum removal of blocking buffer.
100 μL of MicroScint-20 (PerkinElmer 6013621) was added to the wells and kept overnight at room temperature before reading the plates in TopCount NXT™ Microplate Scintillation and Luminescence Counter from PerkinElmer under 3H Test protocol (set at 120 seconds reading time per well, with normal plate orientation).
Preparation of Test Compound Dilutions
All test compounds were provided in powder form at room temperature. 10 mM DMSO stocks of the test compounds were prepared, aliquoted and stored at −20° C. From the 10 mM DMSO stock of the compounds, a 3-fold serial dilution in DMSO was prepared to get a total of 10 dilutions of the test compounds. 0.5 μL of this dilution in DMSO was added to 250 μL of FBS-free basal media containing 3H-taurocholic acid and cold taurocholic acid to prepare the incubation mixture.

[1] = Bidirectional permeability assay (Caco-2 cells); format: in vitro ADME; details: human, pH 7.4, Caco-2, absorptive direction (A2B)
Description: Bidirectional Permeability Assay (Caco-2 Cells)
Caco-2 cells (Evotec) were seeded at a density of 70,000 cells/well in Millicell® 24-well cell culture insert plates and maintained in an incubator (37° C., 5% CO2, 95% RH) for 21 days with media change on alternate days.
Stock solutions (10 mM) of the test compounds, atenolol (low permeability marker), propranolol (high permeability marker) and digoxin (substrate for P-gp transport pathway) were prepared in dimethylsulfoxide (DMSO). An intermediate stock solution (1 mM) was prepared by diluting 10 μL of 10 mM master stock solution with 90 μL of neat DMSO. A working stock solution (10 μM) was prepared by diluting 50 μL of 1 mM with 4950 μL of FaSSIF buffer. […]
On the day of assay, Caco-2 monolayers were washed twice with transport buffer (HBSS, pH 7.4) and pre-incubated for 30 min (37° C., 5% CO2, 95% RH) in an incubator. The electrical resistance of the monolayers was measured with a Millicell®-ERS system. […]
Samples were vortexed and centrifuged at 4000 rpm for 10 minutes. […] The concentration of compounds in the samples was analyzed by liquid chromatography tandem mass spectrometry (LC-MS/MS) method using discovery grade bio-analytical method, as applicable.
The mean apparent permeability (Papp, ×10^−6 cm/sec) of the test compounds, atenolol, propranolol and digoxin were calculated as follows: […]

IC50 (Human LBAT): 1640 nM
Papp A→B at 120 min, 10 µM [1]: 2.2 ×10⁻⁶ cm/s
SMILES: CCCCC1(C)CN(c2ccc(F)cc2)c2cc(SC)c(OCC(O)C(=O)O)cc2S(=O)(=O)C1 (single isomer, unassigned) [1, diastereomer 1]
